Assay results as given in patent US8685674B2, “Chondroitin synthase, method for producing the same and method for producing saccharide chain-extended chondroitin” (Glytech, Inc., priority 2001, dated 2014).

Legend:
Assay type in all cases: biochemical
[1] = target: T1, soluble chondroitin synthase fused with a cleavable insulin signal sequence and a protein A (Homo sapiens, UniProt Q86X52, R588T); assay: GlcUA transferase I (GlcAT-I) assay, UDP-[14C]GlcUA as donor; conditions: enzyme-bound beads, MES pH 6.5, 2 mM MnCl2, 37° C., one hour, average of two experiments
T1 construct: ID; NO: 2; made in house; host or cells: COS-1 cells (transient transfection; secreted fusion protein captured from the medium on IgG-Sepharose beads)
T1 sequence (Q86X52 47-802 R588T): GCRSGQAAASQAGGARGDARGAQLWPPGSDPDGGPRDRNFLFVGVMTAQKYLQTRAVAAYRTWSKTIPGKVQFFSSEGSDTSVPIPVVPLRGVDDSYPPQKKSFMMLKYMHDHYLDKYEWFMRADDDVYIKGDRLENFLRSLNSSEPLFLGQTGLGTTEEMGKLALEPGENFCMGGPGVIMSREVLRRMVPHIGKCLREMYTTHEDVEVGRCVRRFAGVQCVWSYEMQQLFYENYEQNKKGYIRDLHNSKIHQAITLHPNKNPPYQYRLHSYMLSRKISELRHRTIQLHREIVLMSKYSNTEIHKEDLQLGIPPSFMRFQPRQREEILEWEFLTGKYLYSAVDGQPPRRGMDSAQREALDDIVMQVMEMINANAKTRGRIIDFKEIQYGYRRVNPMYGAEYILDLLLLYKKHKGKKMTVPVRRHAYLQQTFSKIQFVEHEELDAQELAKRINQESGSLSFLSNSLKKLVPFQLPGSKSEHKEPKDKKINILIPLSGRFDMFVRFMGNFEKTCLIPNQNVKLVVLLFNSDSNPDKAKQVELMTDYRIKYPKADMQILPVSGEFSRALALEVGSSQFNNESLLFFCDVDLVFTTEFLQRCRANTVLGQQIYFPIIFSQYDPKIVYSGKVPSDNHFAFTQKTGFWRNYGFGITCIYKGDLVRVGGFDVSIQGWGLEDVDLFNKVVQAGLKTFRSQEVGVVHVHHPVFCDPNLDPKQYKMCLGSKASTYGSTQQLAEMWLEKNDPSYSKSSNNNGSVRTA
Description: (§1) By using FuGENE (Trademark) 6 (Roche Molecular Biochemicals Co., Tokyo), an expression plasmid (6.7 μg) was transfected into a COS-1 cell on a 100 mm plate, in accordance with a manual of the manufacture. On the second day from the transfection, 1 ml of an incubation liquid was collected and incubated together with 10 μL of IgG-Sepharose (Amersham Pharmacia Biotech) at 4° C. for one hour. Beads of the IgG-Sepharose was collected by centrifugation, and then washed with an assay buffer. After that, the beads were resuspended in an assay buffer of the same kind as the assay buffer. The beads were used for assaying GalNAc transferase, GlcUA transferase, and Gal transferase. That is, a fused protein occurred in the incubation liquid was absorbed by IgG-Sepharose so as to remove glycosyltransferases in the incubation liquid. […]
(§2) Assay of GlcUA transferase I (GlcAT-I), which is necessary for synthesis of tetrasaccharide for the linkage region, was carried out with a mixture of, in 30 μL in total, 10 μL of the resuspended beads, 1 nmol Galβ1-3Galβ1-4Xyl, 14.3 μM UDP-[^14C]GlcUA (1.46×10^5 dpm), 50 mM MES buffer, pH6.5, and 2 mM MnCl2 (FEBS lett. 459, 415-420 (1999)). […] The thus collected labeled products were quantified by liquid scintillation spectroscopy.

[2] = target: T1, soluble chondroitin synthase fused with a cleavable insulin signal sequence and a protein A; assay: GalNAc transferase assay, UDP-[3H]GalNAc as donor; conditions: for ACTIVITY (receptor specificity): enzyme-bound beads, MES pH 6.5, 10 mM MnCl2, 37° C., one hour, average of two experiments
Description: By using FuGENE (Trademark) 6 (Roche Molecular Biochemicals Co., Tokyo), an expression plasmid (6.7 μg) was transfected into a COS-1 cell on a 100 mm plate, in accordance with a manual of the manufacture. On the second day from the transfection, 1 ml of an incubation liquid was collected and incubated together with 10 μL of IgG-Sepharose (Amersham Pharmacia Biotech) at 4° C. for one hour. Beads of the IgG-Sepharose was collected by centrifugation, and then washed with an assay buffer. After that, the beads were resuspended in an assay buffer of the same kind as the assay buffer. The beads were used for assaying GalNAc transferase, GlcUA transferase, and Gal transferase. That is, a fused protein occurred in the incubation liquid was absorbed by IgG-Sepharose so as to remove glycosyltransferases in the incubation liquid. Then, by using the enzyme bound beads as an enzyme source, glycosyltransferase activity of the fused protein that was bound to the beads was assayed with various receptor substrates and donor substrates.
As a receptor for GalNAc transferase, a polymer (167 μg) of chondroitin, α-thrombomodulin (1 nmol), or GlcUAβ1-3Galβ1-3Galβ1-4Xylβ1-0-Ser (1 nmol) was used. Moreover, as a receptor for GlcUA transferase, the polymer (167 μg) of chondroitin or Galβ1-3Galβ1-4Xylβ (1 nmol) was used. As a receptor of Gal transferase, sheep submandibular asialomucin (300 μg) or GlcNAcβ1-3Galβ1-4GlcNAcβ1-3Galβ1-4GlcNAc (1 nmol) was used. […]
as §2

[3] = target: T1, soluble chondroitin synthase fused with a cleavable insulin signal sequence and a protein A; assay: GlcUA transferase II (GlcAT-II) assay, chondroitin polymer as receptor, UDP-[14C]GlcUA as donor
Description: as §1, §2

[4] = target: T1, soluble chondroitin synthase fused with a cleavable insulin signal sequence and a protein A; assay: Gal transferase assay, UDP-[3H]Gal as donor; conditions: enzyme-bound beads, MES pH 6.5, 10 mM MnCl2, 37° C., one hour, average of two experiments
Description: as §1, §2

In the case of OC[C@H]1O[C@@H](O[C@H]2[C@@H](O)[C@@H](CO)O[C@@H](O[C@@H]3COC(O)[C@H](O)[C@H]3O)[C@@H]2O)[C@H](O)[C@@H](O)[C@H]1O (stereo partly shown) [Galβ1-3Galβ1-4Xyl], the “ACTIVITY (receptor specificity)” value [1] is reported as “ND (ND: Not Detected (<0.1 pmol/ml medium/time))”.
With N[C@@H](CO[C@@H]1OC[C@@H](O[C@@H]2O[C@H](CO)[C@H](O)[C@H](O[C@@H]3O[C@H](CO)[C@H](O)[C@H](O[C@@H]4O[C@H](C(=O)O)[C@@H](O)[C@H](O)[C@H]4O)[C@H]3O)[C@H]2O)[C@H](O)[C@H]1O)C(=O)O [GlcUAβ1-3Galβ1-3Galβ1-4Xylβ-O-Ser, GlcUAβ1-3Galβ1-3Galβ1-4Xylβ1-O-Ser] the “ACTIVITY (receptor specificity)” value [2] was “ND (ND: Not Detected (<0.1 pmol/ml medium/time))”.
For Chondroitin, the “glycosyltransferase activity detected or not (in words)” value [3] was “Activities were detected”, the “ACTIVITY (receptor specificity)” value ([3]; enzyme-bound IgG-Sepharose beads, pH 5.6, 10 mM MnCl2, 37° C., one hour, average of two experiments) was 5.2 pmol/ml medium/time and the “glycosyltransferase activity detected or not (in words)” value [2] was “Activities were detected”. The “ACTIVITY (receptor specificity)” value [2] was 1.4 pmol/ml medium/time.
With “GlcNAcβ1-3Galβ1-4GlcNAcβ1-3Galβ1-4GlcNAc” the “ACTIVITY (receptor specificity)” value [4] was “ND (ND: Not Detected (<0.1 pmol/ml medium/time))”.
